Patent US8796256B2 (Janssen Pharmaceutica NV, priority 2010, dated 2014)
pEC50: −log10 of the molar value. Like-named read-outs stand apart in the source and are kept apart here.

Tests used:
[1] = target: T1, ERR1 (also known as ERR-α or ERR-1) (Homo sapiens, UniProt P11474); assay: TR-FRET assay (disruption of co-activator peptide binding to ERR1 LBD); format: biochemical; settings: 6 nM 6His-ERR1LBD, 6 nM GST-SRC-2 peptide; average of 3 independent experiments
T1 sequence (P11474 193-421 limits assumed): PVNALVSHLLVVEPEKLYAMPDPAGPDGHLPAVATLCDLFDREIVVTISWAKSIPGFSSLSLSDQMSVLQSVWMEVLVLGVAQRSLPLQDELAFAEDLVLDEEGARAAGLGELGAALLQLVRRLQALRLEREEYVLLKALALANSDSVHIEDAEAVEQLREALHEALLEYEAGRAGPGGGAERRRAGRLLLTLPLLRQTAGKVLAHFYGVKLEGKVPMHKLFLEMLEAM
Procedure, shortened: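 His-tagged ERR1 ligand-binding domain and GST-labelled SRC-2 peptide, each 6 nM, equilibrated at 25° C for 4-18 h in Tris pH 8/Hepes/KCl/DTT/delipidated BSA buffer. Compound-induced loss of co-activator binding read as Eu cryptate→XL665 energy transfer; values from hyperbolic curve fits averaged over 3 independent runs.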

[2] = system: Zucker fa/fa male rats; assay: Zucker fa/fa Rat Model Assay; format: in vivo; settings: po, 120 h, 10 mg/kg orally once a day for 4 days
Excerpt: Zucker fa/fa is a monogenic model of frank diabetes due to a mutation on the fa gene truncating the leptin receptor and preventing its interaction with its peptide hormone. This mutation results in a hyperphagic phenotype and the rodent develops obesity, hyperlipidemia, fasting hyperglycemia and insulin resistance. Zucker fa/fa male rats were received at four weeks of age and allowed to acclimate for one week. At five weeks of age the animals were single housed in cages in a temperature-controlled room with 12-hour light/dark cycle. The rats were allowed ad libitum access to water and food and throughout the study were maintained on a Purina 5008 diet. Animals were sorted based primarily on fed insulin levels and circulating triglycerides. Animals were dosed orally once a day (10 mg/kg) in the morning for 4 days. The vehicle used was either 20% HPβCD (Hydroxypropyl Beta Cyclodextrin) or 15% Vitamin E/30% PEG-400 (Polyethylene Glycol 400). Fed insulin and triglycerides were measured using blood collected from the tail vein at day 5. Serum plasma samples were prepared by centrifugation in EDTA (Ethylenediaminetetraacetic acid) containing tubes, transferred into 96 well plates and stored at −80° C.

[3] = blood from tail vein at day 5, read-out: % Change Fed Insulin Levels
[4] = blood from tail vein at day 5, read-out: % Change Fed Triglyceride Levels

Row | Compound | pEC50 [1] | change in vivo at 10 mg/kg [2, 3] | change in vivo at 10 mg/kg [2, 4]
1 | O=C1S/C(=C\c2ccc3c(cnn3Cc3ccc(Cl)cc3C(F)(F)F)c2)C(=O)N1C[C@H]1COCCN1 [Compound 170, (5Z)-5-({1-[4-Chloro-2-(trifluoromethyl)benzyl]-1H-indazol-5-yl}methylidene)-3-[(3S)-morpholin-3-ylmethyl]-1,3-thiazolidine-2,4-dione] | 7.82 | -52% | -61%
2 | O=C1S/C(=C\c2ccc3c(cnn3Cc3ccc(Cl)cc3C(F)(F)F)c2)C(=O)N1C[C@H]1CN2CCC[C@H]2CO1 [Compound 202, (5Z)-5-({1-[4-Chloro-2-(trifluoromethyl)benzyl]-1H-indazol-5-yl}methylidene)-3-[(3R,8aS)-hexahydro-1H-pyrrolo[2,1-c] [1,4]oxazin-3-ylmethyl]-1,3-thiazolidine-2,4-dione] | 7.46 | -3% | -26%
3 | Cc1nn(Cc2ccc(Cl)cc2C(F)(F)F)c2ccc(/C=C3\SC(=O)N(CC(=O)O)C3=O)cc12 [Compound 36, [(5Z)-5-({1-[4-Chloro-2-(trifluoromethyl)benzyl]-3-methyl-1H-indazol-5-yl}methylidene)-2,4-dioxo-1,3-thiazolidin-3-yl]acetic acid] | 7.55 | -18% | -4%
4 | O=C1S/C(=C\c2ccc3c(cnn3Cc3ccc(Cl)cc3C(F)(F)F)c2)C(=O)N1CCN1CCCC1 [Compound 111, (5Z)-5-({1-[4-Chloro-2-(trifluoromethyl)benzyl]-1H-indazol-5-yl}methylidene)-3-(2-pyrrolidin-1-ylethyl)-1,3-thiazolidine-2,4-dione] | 7.77 | -49% | -30%
5 | CN1C2CCC1CC(N1C(=O)S/C(=C\c3ccc4c(cnn4Cc4ccc(Cl)cc4C(F)(F)F)c3)C1=O)C2 (stereo not drawn) [Compound 128, (5Z)-5-({1-[4-Chloro-2-(trifluoromethyl)benzyl]-1H-indazol-5-yl}methylidene)-3-(8-methyl-8-azabicyclo[3.2.1]oct-3-yl)-1,3-thiazolidine-2,4-dione] | 7.72 | -36% | 28%
6 | O=C1S/C(=C\c2ccc3c(cnn3Cc3ccc(Cl)cc3C(F)(F)F)c2)C(=O)N1Cc1nn[nH]n1 [Compound 72, (5Z)-5-({1-[4-Chloro-2-(trifluoromethyl)benzyl]-1H-indazol-5-yl}methylidene)-3-(2H-tetrazol-5-ylmethyl)-1,3-thiazolidine-2,4-dione] | 7.89 | -44% | -51%
7 | O=C1CN(CCN2C(=O)S/C(=C\c3ccc4c(cnn4Cc4ccc(Cl)cc4C(F)(F)F)c3)C2=O)CCN1 [Compound 79, (5Z)-5-({1-[4-Chloro-2-(trifluoromethyl)benzyl]-1H-indazol-5-yl}methylidene)-3-[2-(3-oxopiperazin-1-yl)ethyl]-1,3-thiazolidine-2,4-dione] | 7.52 | -20% | 34%
8 | COc1nn(Cc2ccc(Cl)cc2C(F)(F)F)c2ccc(/C=C3\SC(=O)N(CCN4CCCC4)C3=O)cc12 [Compound 27, (5Z)-5-({1-[4-Chloro-2-(trifluoromethyl)benzyl]-3-methoxy-1H-indazol-5-yl}methylidene)-3-(2-pyrrolidin-1-ylethyl)-1,3-thiazolidine-2,4-dione] | 7.57 | 9% | 0%
9 | NS(=O)(=O)NC(=O)CN1C(=O)S/C(=C\c2ccc3c(cnn3Cc3ccc(Cl)cc3C(F)(F)F)c2)C1=O [Compound 31, 2-[(5Z)-5-({1-[4-Chloro-2-(trifluoromethyl)benzyl]-1H-indazol-5-yl}methylidene)-2,4-dioxo-1,3-thiazolidin-3-yl]-N-sulfamoylacetamide] | 7.72 | -51% | -14%
10 | C[C@H](N)CN1C(=O)S/C(=C\c2ccc3c(cnn3Cc3ccc(Cl)cc3C(F)(F)F)c2)C1=O [Compound 155, 3-[(2S)-2-Aminopropyl]-(5Z)-5-({1-[4-chloro-2-(trifluoromethyl)benzyl]-1H-indazol-5-yl}methylidene)-1,3-thiazolidine-2,4-dione] | 7.62 | -60% | -55%
11 | CN(C)S(=O)(=O)NC(=O)CN1C(=O)S/C(=C\c2ccc3c(cnn3Cc3ccc(Cl)cc3C(F)(F)F)c2)C1=O [Compound 35, 2-[(5Z)-5-({1-[4-Chloro-2-(trifluoromethyl)benzyl]-1H-indazol-5-yl}methylidene)-2,4-dioxo-1,3-thiazolidin-3-yl]-N-(dimethylsulfamoyl) acetamide] | 7.64 | -29% | -46%

More lines, main results first:

Row | pEC50 [1] | Compound | change in vivo at 10 mg/kg [2, 3] | change in vivo at 10 mg/kg [2, 4]
12 | 7.89 | CS(=O)(=O)NN1C(=O)S/C(=C\c2ccc3c(cnn3Cc3ccc(Cl)cc3C(F)(F)F)c2)C1=O [Compound 361, N-[(5Z)-5-({1-[4-Chloro-2-(trifluoromethyl)benzyl]-1H-indazol-5-yl}methylidene)-2,4-dioxo-1,3-thiazolidin-3-yl]methanesulfonamide] | -58% | -43%
13 | 8.10 | COc1ccc(Cn2ncc3cc(/C=C4\SC(=O)N(C5CCC(C(=O)O)CC5)C4=O)ccc32)c(C(F)(F)F)c1 (stereo not drawn) [Compound 22, 4-[(5Z)-5-({1-[4-Methoxy-2-(trifluoromethyl)benzyl]-1H-indazol-5-yl}methylidene)-2,4-dioxo-1,3-thiazolidin-3-yl)cyclohexanecarboxylic acid] | -11% | 32%
14 | 8.05 | O=C(O)CN1C(=O)S/C(=C\c2ccc3c(cnn3Cc3ccc(Cl)cc3C(F)(F)F)c2)C1=O [Compound 4, (5Z)-5-{[1-(4-Chloro-2-trifluoromethylbenzyl)-1H-indazol-5-yl]methylidene}-2,4-dioxothiazolidin-3-ylacetic acid] | -50% | -14%
15 | 7.82 | O=C1S/C(=C\c2ccc3c(cnn3Cc3ccc(Cl)cc3C(F)(F)F)c2)C(=O)N1C1CCN(CCO)CC1 [Compound 148, (5Z)-5-({1-[4-Chloro-2-(trifluoromethyl)benzyl]-1H-indazol-5-yl}methylidene)-3-[1-(2-hydroxyethyl)piperidin-4-yl]-1,3-thiazolidine-2,4-dione] | -77% | -40%
16 | 8.30 | CN1CCC[C@H]1CN1C(=O)S/C(=C\c2ccc3c(cnn3Cc3ccc(Cl)cc3C(F)(F)F)c2)C1=O [Compound 121, (5Z)-5-({1-[4-Chloro-2-(trifluoromethyl)benzyl]-1H-indazol-5-yl}methylidene)-3-{[(2S)-1-methylpyrrolidin-2-yl]methyl}-1,3-thiazolidine-2,4-dione] | -59% | -37%
17 | 7.92 | O=C(O)C1CCC(N2C(=O)S/C(=C\c3ccc4c(cnn4Cc4ccc(Cl)cc4C(F)(F)F)c3)C2=O)CC1 (stereo not drawn) [Compound 73, 4-[(5Z)-5-({1-[4-Chloro-2-(trifluoromethyl)benzyl]-1H-indazol-5-yl}methylidene)-2,4-dioxo-1,3-thiazolidin-3-yl]cyclohexanecarboxylic acid] | -30% | -19%
